The text below walks through data of US5399552A, “Antibiotic peptides bearing aminoalkylthioether moieties” (Merck & Co, Inc, priority 1991, dated 1995).

In test [1] the test system is Pneumocystis carinii. Nature of the test: Pneumocystis carinii pneumonia in immunosuppressed rats, lung cysts. The test is classed as in vivo, Sprague-Dawley rats. Particulars: sc twice daily for four days, compared with untreated or solvent controls. As for the experimental part: The compounds of the present invention may also be useful for inhibiting or alleviating Pneumocystis carinii infections in immune compromised patients. […] Before drug treatment, two rats are sacrificed to confirm the presence of Pneumocystis carinii pneumonia (PCP). Five rats (weighing approximately 150 grams) are injected twice daily for four days subcutaneously (sc) with Compound A-Ia in 0.25 ml of vehicle (distilled water). A vehicle control is also carried out. All animals continue to receive dexasone in the drinking water and low protein diet during the treatment period. At the completion of the treatment, all animals are sacrificed, the lungs are removed and processed, and the extent of disease determined by microscopic examination of stained slides for the presence of cysts.

For test [2], the system named is C. parapsilosis MY 1010. The test is described as follows: Minimum fungicidal concentration (MFC), microbroth dilution assay in YNBD. Particulars: 35° C. 24 hours, then SDA 24 hours at 28° C. Format: cell-based, Candida parapsilosis. As for the experimental part: (§1) The compounds of the present invention are active against many fungi and particularly against Candida species. The antifungal properties may be illustrated with the minimum fungicidal concentration (MFC) determination against certain Candida organisms in a microbroth dilution assay carried out in a Yeast Nitrogen Base (Difco) medium with 1% dextrose (YNBD).
(§2) In carrying out the assay, Compound A-Ia was solubilized in 10 percent dimethyl sulfoxide (DMSO) and diluted to 2560 μg/ml. The compound was then diluted to 256 μg/ml in YNBD.
(§3) The yeast cultures, maintained on Sabouraud dextrose agar were transferred to YN broth (Difco) and incubated overnight at 35° C. with shaking (250 rpm). After incubation, each culture was diluted in sterile water to yield a final concentration of 1-5×10^6 colony forming units (CFU)/ml.
(§4) 96-well microplates were inoculated using a MIC-2000 (Dynatech) which delivers […] per well yielding a final inoculum per well of 1.5-7.5×10^3 cells. The microplates were incubated at 35° C. for 24 hours. The minimum inhibitory concentrations (MICs) were recorded as the lowest concentrations of drug showing no visible growth.
(§5) After recording the MIC, the plates were shaken to resuspend the cells. […] The inoculated trays were incubated 24 hours at 28° C. and then read for minimum fungicidal concentration (MFC). […]
(In general: Dilution methods test growth across graded concentrations, often in twofold steps.)

Test [3] relates to C. pseudotropicalis MY 1100. The test is described as above. Format: cell-based, Candida pseudotropicalis. The conditions noted are these: 35° C. 24 hours, then SDA 24 hours at 28° C. How it is done:
as §1, §2, §3, §4, §5

For test [4], the system named is C. Albicans MY 1055. The test is described as above. Particulars: 35° C. 24 hours, then SDA 24 hours at 28° C. Format: cell-based, Candida albicans. How it is done:
as §1, §2, §3, §4
(§6) After recording the MIC, the plates were shaken to resuspend the cells. Thereafter, 1.5 μl samples from the wells in the 96-well microplate were transferred to a single well tray containing Sabouraud dextrose agar. The inoculated trays were incubated 24 hours at 28° C. and then read for minimum fungicidal concentration (MFC). MFC is defined as the lowest concentration of drug showing no growth or less than 4 colonies per spot.

The test system of test [5] is C. Albicans MY 1028. The description is as above. The test is classed as cell-based, Candida albicans. The conditions noted are these: 35° C. 24 hours, then SDA 24 hours at 28° C. As for the experimental part:
as §1, §2, §3, §4, §6

Test [6] concerns C. Albicans MY 1730. Described as above. The conditions noted are these: 35° C. 24 hours, then SDA 24 hours at 28° C. Format: cell-based, Candida albicans. How it is done: as §1, §2, §3, §4, §6
Test [7] relates to C. tropicalis MY 1012. The description is as above. Particulars: 35° C. 24 hours, then SDA 24 hours at 28° C. Format: cell-based, Candida tropicalis. How it is done: as §1, §2, §3, §4, §5
Test [8] has as its system Candida albicans MY 1055. The test is described as follows: In vivo effectiveness in mice infected I.V. with Candida albicans, kidney CFU. Set-up: species or system female DBA/2 mice. The conditions noted are these: 0.4 mg/kg I.P. twice daily for four consecutive days; kidneys of DBA/2 mice after seven days. As for the experimental part:
Growth from an overnight SDA culture of Candida albicans MY 1055 was suspended in sterile saline and the cell concentration determined by hemacytometer count and the cell suspension adjusted to 3.75 x 10^5 cells/mi. Then 0.2 milliliter of this suspension was administered I.V. in the tail vein of mice so that the final inoculum was 7.5×10^4 cells/mouse.
The assay then was carried out by administering aqueous solutions of Compound A-Ia at various concentrations intraperitoneally (I.P.), twice daily (b.i.d.) for four consecutive days to 18 to 20 gram female DBA/2 mice, which previously had been infected with Candida albicans in the manner described above. Distilled water was administered I.P. to C. albicans challenged mice as controls. After seven days, the mice were sacrificed by carbon dioxide gas, paired kidneys were removed aseptically and placed in sterile polyethylene bags containing 5 milliters of sterile saline. The kidneys were homogenized in the bags, serially diluted in sterile saline and aliquots spread on the surface of SDA plates. The plates were incubated at 35° C. for 48 hours and yeast colonies were enumerated for determination of colony forming units (CFU) per gram of kidneys. Compound A-Ia gave 99 percent reduction of recoverable Candida CFUs at 0.4 mg/kg I.P. twice daily for four consecutive days.

One may read the MFC as the lowest tested concentration that kills the fungus rather than only halting it.

In the case of “1-[4-hydroxy-5-aminoethylthio-N^2 -(10,12-dimethyl-1-oxotetradecyl)ornithine]-5-(3-hydroxyglutamine)-6-(3-hydroxyproline)echinocandin B trifluoroacetate [Compound A-Ia]”, the “extent of disease: cysts in stained slides from the lungs” value in test [1] is recorded as “prevention of or reduction of cysts”. The MFC in test [2] was found to be 0.25 µg/mL; in test [3], 0.25 µg/mL; in test [4], 0.5 µg/mL; in test [5] it was 0.5 µg/mL; in test [6], 0.125 µg/mL; in test [7] it was 0.125 µg/mL. In addition, the “reduction of recoverable Candida CFUs” value in test [8] was 99%.
